In US20160046618A1, “Cyclopropyl Fused Thiazin-2-Amine Compounds as Beta-Secretase Inhibitors and Methods of Use” (AMGEN INC., priority 2014, published 2016) one finds IC50 data, which are given here for 17 compounds.

For assay [1], the target named is human recombinant BACE1 (Homo sapiens (Human), UniProt P56817). The assay is described as follows: In vitro enzymatic BACE1 FRET assay. To be noted: read-out: IC50 IP (μM) BACE1 enzyme. The format is biochemical. Summed up:
(§1)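 Protease purified by Ni-NTA chromatography; start with FRET substrate (50 nM); incubate 1 h; quench with Tris to neutral pH; read fluorescence ex 488 / em 590 nm.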

In assay [2] the target is human recombinant BACE2 (Homo sapiens (Human), UniProt Q9Y5Z0). Put plainly: In vitro enzymatic BACE2 FRET assay. The format is biochemical. As to conditions: read-out: IC50 IP (μM) BACE2 enzyme. In short, it runs like this: as §1
Chain of human recombinant BACE2 (Q9Y5Z0 63-518): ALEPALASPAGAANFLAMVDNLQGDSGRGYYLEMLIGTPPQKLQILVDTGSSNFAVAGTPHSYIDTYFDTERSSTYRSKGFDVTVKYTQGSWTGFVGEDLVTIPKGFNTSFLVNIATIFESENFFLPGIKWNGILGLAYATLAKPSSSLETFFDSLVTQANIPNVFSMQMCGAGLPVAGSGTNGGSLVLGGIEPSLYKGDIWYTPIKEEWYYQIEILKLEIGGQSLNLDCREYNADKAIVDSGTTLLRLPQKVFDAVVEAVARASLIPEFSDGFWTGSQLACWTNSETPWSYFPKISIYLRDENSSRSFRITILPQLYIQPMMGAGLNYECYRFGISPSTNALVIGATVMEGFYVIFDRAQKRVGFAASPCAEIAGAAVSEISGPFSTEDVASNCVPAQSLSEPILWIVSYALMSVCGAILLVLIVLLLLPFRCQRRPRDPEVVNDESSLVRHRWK
The test system of assay [3] is Aβ40 in conditioned medium of cells stably expressing Amyloid Precursor Protein (APP). Put plainly: In vitro BACE-1 cell-based assay (Aβ40 sandwich ELISA). As to conditions: read-out: IC50 IP (μM) BACE1 cell. In short, it runs like this:
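APP-expressing cells treated 24 h at 37 °C with compound in 10-point dose response (top 100 μM or 10 μM, 0.1% DMSO final). Secreted Aβ40 in conditioned medium quantified by sandwich ELISA (pAb40 capture, biotinylated 6E10 detection, time-resolved europium fluorescence); IC50 from percent inhibition versus concentration.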
Background: An ELISA detects its analyte on a solid surface through an enzyme-linked reagent.

Assay [4] deals with Recombinant Cat D (Homo sapiens (Human), UniProt P07339). Put plainly: In vitro enzymatic Cathepsin D (Cat D) FRET assay. It is filed as biochemical. To be noted: read-out: IC50 IP (μM) CatD. Summed up: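 Cleavage of a 20 nM FRET peptide by CHO-derived Cat D over 1 h at pH 3.5 (citrate buffer with CHAPS, 10% DMSO final). Endpoint fluorescence is read after Tris quench.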
Chain of Recombinant Cat D (P07339 65-412): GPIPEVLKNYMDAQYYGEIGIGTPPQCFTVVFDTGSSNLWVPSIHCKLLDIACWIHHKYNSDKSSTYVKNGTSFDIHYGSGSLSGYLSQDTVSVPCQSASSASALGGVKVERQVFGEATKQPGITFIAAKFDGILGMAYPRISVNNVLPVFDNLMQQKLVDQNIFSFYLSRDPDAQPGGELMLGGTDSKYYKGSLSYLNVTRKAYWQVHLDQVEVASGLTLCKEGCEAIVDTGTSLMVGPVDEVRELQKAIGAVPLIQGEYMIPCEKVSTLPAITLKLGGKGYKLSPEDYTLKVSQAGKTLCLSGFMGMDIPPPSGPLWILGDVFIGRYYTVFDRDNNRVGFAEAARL

Chain of human recombinant BACE1 (P56817 46-501): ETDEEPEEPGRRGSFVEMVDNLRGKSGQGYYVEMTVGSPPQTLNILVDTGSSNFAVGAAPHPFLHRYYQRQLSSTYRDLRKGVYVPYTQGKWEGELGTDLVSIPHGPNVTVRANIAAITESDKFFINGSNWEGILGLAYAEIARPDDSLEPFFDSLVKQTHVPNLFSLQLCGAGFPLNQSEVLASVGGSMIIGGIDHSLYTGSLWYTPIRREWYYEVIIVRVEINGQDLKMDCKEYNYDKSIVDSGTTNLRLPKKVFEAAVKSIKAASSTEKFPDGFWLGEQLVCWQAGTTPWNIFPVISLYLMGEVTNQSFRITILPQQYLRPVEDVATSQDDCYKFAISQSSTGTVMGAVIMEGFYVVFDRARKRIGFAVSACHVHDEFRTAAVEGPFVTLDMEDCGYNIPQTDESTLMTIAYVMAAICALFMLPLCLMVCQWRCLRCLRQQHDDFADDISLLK

For the compound `COC[C@]12C[C@H]1[C@@](C)(c1cc(NC(=O)c3cnc(OCc4nccs4)cn3)cc(F)c1F)N=C(N)S2` [Example 1034, N-(3-((1S,5S,6S)-3-amino-1-(methoxymethyl)-5-methyl-2-thia-4-azabicyclo[4.1.0]hept-3-en-5-yl)-4,5-difluorophenyl)-5-(1,3-thiazol-2-ylmethoxy)-2-pyrazinecarboxamide], the IC50 (as a rule, the concentration needed to halve the response being measured) was 0.0014 µM in assay [1], 0.0118 µM in assay [2], 0.0109 µM in assay [3] and 1400 µM in assay [4].

As for `COC[C@]12C[C@H]1[C@@](C)(c1cc(NC(=O)c3cnc(OCC4CC4(F)F)cn3)cc(F)c1F)N=C(N)S2` (stereo partly drawn) [Example 1035, N-(3-((1S,5S,6S)-3-amino-1-(methoxymethyl)-5-methyl-2-thia-4-azabicyclo[4.1.0]hept-3-en-5-yl)-4,5-difluorophenyl)-5-((2,2-difluorocyclopropyl)methoxy)pyrazine-2-carboxamide], the IC50 in assay [1] came out at 0.00258 µM; in assay [2], 0.1 µM; in assay [3], 0.022 µM; in assay [4] it was 1210 µM.

As for `COC[C@]12C[C@H]1[C@@](C)(c1cc(NC(=O)c3cnc(OCc4nnc(C)o4)cn3)cc(F)c1F)N=C(N)S2` [Example 1037, N-(3-((1S,5S,6S)-3-amino-1-(methoxymethyl)-5-methyl-2-thia-4-azabicyclo[4.1.0]hept-3-en-5-yl)-4,5-difluorophenyl)-5-((5-methyl-1,3,4-oxadiazol-2-yl)methoxy)-2-pyrazinecarboxamide], the IC50 in assay [1] turned out to be 0.000803 µM; in assay [2] it was 0.128 µM; in assay [3] it was 0.0467 µM; in assay [4], 785 µM.

In the case of `C[C@]1(c2cc(NC(=O)c3cnc(OCC(F)(F)F)cn3)ccc2F)N=C(N)S[C@@]2(C(=O)NCCF)C[C@H]21` [Example 1040, (1S,5S,6S)-3-amino-5-(2-fluoro-5-(5-(2,2,2-trifluoroethoxy)pyrazine-2-carboxamido)phenyl)-N-(2-fluoroethyl)-5-methyl-2-thia-4-azabicyclo[4.1.0]hept-3-ene-1-carboxamide], the IC50 is 0.000426 µM in assay [1], 0.0555 µM in assay [2], 0.00284 µM in assay [3] and 212 µM in assay [4].

Turning to `CC1(NC(=O)[C@]23C[C@H]2[C@@](C)(c2cc(NC(=O)c4cnc(OCC(F)(F)F)cn4)ccc2F)N=C(N)S3)CC1` [Example 1041, (1S,5S,6S)-3-amino-5-(2-fluoro-5-(5-(2,2,2-trifluoroethoxy)pyrazine-2-carboxamido)phenyl)-5-methyl-N-(1-methylcyclopropyl)-2-thia-4-azabicyclo[4.1.0]hept-3-ene-1-carboxamide], the concentration for half-maximal inhibition (IC50) in assay [1] is 0.00176 µM; in assay [2], 0.222 µM; in assay [3], 0.00692 µM; in assay [4] it was 324 µM.

For the compound `C#CCOc1cnc(C(=O)Nc2cc(F)c(F)c([C@@]3(C)N=C(N)S[C@@]4(CNC(C)=O)C[C@H]43)c2)cn1` [Example 1042, N-(3-((1S,5S,6S)-1-(acetamidomethyl)-3-amino-5-methyl-2-thia-4-azabicyclo[4.1.0]hept-3-en-5-yl)-4,5-difluorophenyl)-5-(prop-2-yn-1-yloxy)pyrazine-2-carboxamide], the IC50 in assay [1] was determined as 0.000317 µM; in assay [2], 0.0159 µM; in assay [3], 0.00621 µM; in assay [4] it was 55.6 µM.

With `C#CCOc1cnc(C(=O)Nc2cc(C)c(F)c([C@@]3(C)N=C(N)S[C@@]4(COC)C[C@H]43)c2)cn1` [Example 1043, N-(3-((1S,5S,6S)-3-amino-1-(methoxymethyl)-5-methyl-2-thia-4-azabicyclo[4.1.0]hept-3-en-5-yl)-4-fluoro-5-methylphenyl)-5-(2-propyn-1-yloxy)-2-pyrazinecarboxamide], the IC50 worked out at 0.000352 µM in assay [1], 0.00931 µM in assay [2], 0.0138 µM in assay [3] and 196 µM in assay [4].

As to `COC[C@]12C[C@H]1[C@@](C)(c1cc(NC(=O)c3cnc(OCc4nc(C)no4)cn3)cc(C)c1F)N=C(N)S2` [Example 1044, N-(3-((1S,5S,6S)-3-amino-1-(methoxymethyl)-5-methyl-2-thia-4-azabicyclo[4.1.0]hept-3-en-5-yl)-4-fluoro-5-methylphenyl)-5-((3-methyl-1,2,4-oxadiazol-5-yl)methoxy)-2-pyrazinecarboxamide], the IC50 amounted to 0.001 µM in assay [1], 0.0987 µM in assay [2], 0.017 µM in assay [3] and 291 µM in assay [4].

For the compound `CC(NC(=O)[C@]12C[C@H]1[C@@](C)(c1cc(NC(=O)c3cnc(OCC(F)(F)F)cn3)ccc1F)N=C(N)S2)C(F)F` (stereo partly drawn) [Example 1045, (1S,5S,6S)-3-amino-N-(1,1-difluoropropan-2-yl)-5-(2-fluoro-5-(5-(2,2,2-trifluoroethoxy)pyrazine-2-carboxamido)phenyl)-5-methyl-2-thia-4-azabicyclo[4.1.0]hept-3-ene-1-carboxamide], the IC50 in assay [1] came out at 0.00181 µM; in assay [2] it was 0.288 µM; in assay [3], 0.0738 µM; in assay [4], 194 µM.

On to `C#CCOc1cnc(C(=O)Nc2cc(F)c(F)c([C@@]3(C)N=C(N)S[C@@]4(COCC)C[C@H]43)c2)cn1` [Example 1046, N-(3-((1S,5S,6S)-3-amino-1-(ethoxymethyl)-5-methyl-2-thia-4-azabicyclo[4.1.0]hept-3-en-5-yl)-4,5-difluorophenyl)-5-(2-propyn-1-yloxy)-2-pyrazinecarboxamide], for which the IC50 in assay [1] amounted to 0.00037 µM; in assay [2] it was 0.0307 µM; in assay [3], 0.0162 µM; in assay [4], 43.5 µM.

For the compound `CC#CCCOc1cnc(C(=O)Nc2ccc(F)c([C@@]3(C)N=C(N)S[C@@]4(COC)C[C@H]43)c2)cn1` [Example 1047, N-(3-((1S,5S,6S)-3-amino-1-(methoxymethyl)-5-methyl-2-thia-4-azabicyclo[4.1.0]hept-3-en-5-yl)-4-fluorophenyl)-5-(3-pentyn-1-yloxy)-2-pyrazinecarboxamide], the half-inhibitory concentration (IC50) in assay [1] is 0.0054 µM; in assay [2], 0.189 µM; in assay [3] it was 0.015 µM; in assay [4], above 400 µM.

For the compound `COC[C@]12C[C@H]1[C@@](C)(c1cc(NC(=O)c3cnc(OCC4(C)CC4)cn3)ccc1F)N=C(N)S2` [Example 1049, N-(3-((1S,5S,6S)-3-amino-1-(methoxymethyl)-5-methyl-2-thia-4-azabicyclo[4.1.0]hept-3-en-5-yl)-4-fluorophenyl)-5-((1-methylcyclopropyl)methoxy)-2-pyrazinecarboxamide], the 50% inhibitory concentration (IC50) in assay [1] was 0.0054 µM; in assay [2] it was 0.18 µM; in assay [3], 0.0035 µM; in assay [4], above 400 µM.

As to `COC[C@]12C[C@H]1[C@@](C)(c1cc(NC(=O)c3cnc(OCC4(C)COC4)cn3)ccc1F)N=C(N)S2` [Example 1050, N-(3-((1S,5S,6S)-3-amino-1-(methoxymethyl)-5-methyl-2-thia-4-azabicyclo[4.1.0]hept-3-en-5-yl)-4-fluorophenyl)-5-((3-methyl-3-oxetanyl)methoxy)-2-pyrazinecarboxamide], the IC50 was 0.03 µM in assay [1], 1.19 µM in assay [2], 0.035 µM in assay [3] and above 400 µM in assay [4].

Turning to `COC[C@]12C[C@H]1[C@@](C)(c1cc(NC(=O)c3cnc(OCCF)cn3)ccc1F)N=C(N)S2` [Example 1052, N-(3-((1S,5S,6S)-3-amino-1-(methoxymethyl)-5-methyl-2-thia-4-azabicyclo[4.1.0]hept-3-en-5-yl)-4-fluorophenyl)-5-(2-fluoroethoxy)-2-pyrazinecarboxamide], the IC50 was 0.016 µM in assay [1], 0.146 µM in assay [2], 0.0083 µM in assay [3] and above 400 µM in assay [4].

With `COC[C@]12C[C@H]1[C@@](C)(c1cc(NC(=O)c3cnc(OCC4CC4)cn3)ccc1F)N=C(N)S2` [Example 1053, N-(3-((1S,5S,6S)-3-amino-1-(methoxymethyl)-5-methyl-2-thia-4-azabicyclo[4.1.0]hept-3-en-5-yl)-4-fluorophenyl)-5-(cyclopropylmethoxy)-2-pyrazinecarboxamide], the half-inhibitory concentration (IC50) in assay [1] was 0.0059 µM; in assay [2], 0.108 µM; in assay [3], 0.0029 µM; in assay [4] it was 1420 µM.

As to `COC[C@]12C[C@H]1[C@@](C)(c1cc(NC(=O)c3cnc(OCC4CCC4)cn3)ccc1F)N=C(N)S2` [Example 1054, N-(3-((1S,5S,6S)-3-amino-1-(methoxymethyl)-5-methyl-2-thia-4-azabicyclo[4.1.0]hept-3-en-5-yl)-4-fluorophenyl)-5-(cyclobutylmethoxy)-2-pyrazinecarboxamide], the IC50 in assay [1] worked out at 0.0014 µM; in assay [2] it was 0.171 µM; in assay [3], 0.011 µM; in assay [4] it was 862 µM.

On to `COC[C@]12C[C@H]1[C@@](C)(c1cc(NC(=O)c3cnc(OCC4COC4)cn3)ccc1F)N=C(N)S2` [Example 1055, N-(3-((1S,5S,6S)-3-amino-1-(methoxymethyl)-5-methyl-2-thia-4-azabicyclo[4.1.0]hept-3-en-5-yl)-4-fluorophenyl)-5-(3-oxetanylmethoxy)-2-pyrazinecarboxamide], for which the IC50 was 0.0079 µM in assay [1], 0.498 µM in assay [2], 0.022 µM in assay [3] and 1330 µM in assay [4].
